Source: BindingDB's records for doi:10.1111/cbdd.12840 (Miranda House, 2017)

Target: T1, Putative FAD-containing monooxygenase MymA (Mycobacterium tuberculosis (strain ATCC 25618 / H37Rv), UniProt P9WNF7)
T1 sequence (P9WNF7 whole entry): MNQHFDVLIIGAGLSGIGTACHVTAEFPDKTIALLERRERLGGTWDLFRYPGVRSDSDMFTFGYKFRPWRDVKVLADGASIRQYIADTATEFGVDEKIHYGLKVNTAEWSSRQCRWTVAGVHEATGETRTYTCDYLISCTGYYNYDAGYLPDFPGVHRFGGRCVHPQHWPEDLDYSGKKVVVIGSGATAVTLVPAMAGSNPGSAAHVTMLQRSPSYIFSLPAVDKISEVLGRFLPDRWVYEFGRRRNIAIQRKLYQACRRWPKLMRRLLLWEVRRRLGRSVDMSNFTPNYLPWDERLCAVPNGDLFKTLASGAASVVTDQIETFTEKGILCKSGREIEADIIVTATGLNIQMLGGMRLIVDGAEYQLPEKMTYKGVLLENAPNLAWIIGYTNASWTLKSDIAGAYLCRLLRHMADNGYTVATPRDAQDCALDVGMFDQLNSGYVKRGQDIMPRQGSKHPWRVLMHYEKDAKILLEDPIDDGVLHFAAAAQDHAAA
Assay: MymA Inhibition Assay
Experimental: Inhibition of MymA activity by INH was checked using different concentrations (0-12 um) of INH, 100 um of trimeth-ylamine and 5 mg of MymA along with the other components in the enzyme assay as described above.

NNC(=O)c1ccncc1 [4-pyridinecarbohydrazide(Isoniazid)] showed an IC50 of 4.9 µM.
